Data as given in ChEMBL document CHEMBL5537147, “Development of membrane-targeting TPP+-chloramphenicol conjugates to combat methicillin-resistant staphylococcus aureus (MRSA) infections” (Eur J Med Chem, 2024).

What was measured:
[1] = tested on: Staphylococcus aureus; assay: Antibacterial activity against methicillin-resistant Staphylococcus aureus USA300 assessed as inhibition of bacterial growth incubated for 16 to 18 hrs by CLSI based two-fold serial dilution method; type: functional; settings: time 16-18 hrs
[2] = tested on: Staphylococcus aureus; assay: Antibacterial activity against methicillin-resistant Staphylococcus aureus 3390 assessed as inhibition of bacterial growth incubated for 16 to 18 hrs by CLSI based two-fold serial dilution method; type: functional; settings: time 16-18 hrs
[3] = Cytotoxicity against human L02 cells assessed as inhibition of cell growth incubated for 24 hrs by MTT assay; type: toxicity, cell-based
[4] = tested on: Pseudomonas aeruginosa; assay: Antibacterial activity against Pseudomonas aeruginosa 535 assessed as inhibition of bacterial growth incubated for 16 to 18 hrs by CLSI based two-fold serial dilution method; type: functional; settings: time 16-18 hrs
[5] = tested on: Staphylococcus aureus; assay: Antibacterial activity against methicillin-resistant Staphylococcus aureus 3392 assessed as inhibition of bacterial growth incubated for 16 to 18 hrs by CLSI based two-fold serial dilution method; type: functional; settings: time 16-18 hrs
[6] = tested on: Acinetobacter baumannii; assay: Antibacterial activity against Acinetobacter baumannii 1309 assessed as inhibition of bacterial growth incubated for 16 to 18 hrs by CLSI based two-fold serial dilution method; type: functional; settings: time 16-18 hrs
[7] = tested on: Pseudomonas aeruginosa; assay: Antibacterial activity against Pseudomonas aeruginosa 408 assessed as inhibition of bacterial growth incubated for 16 to 18 hrs by CLSI based two-fold serial dilution method; type: functional; settings: time 16-18 hrs
[8] = tested on: Acinetobacter baumannii; assay: Antibacterial activity against Acinetobacter baumannii 1310 assessed as inhibition of bacterial growth incubated for 16 to 18 hrs by CLSI based two-fold serial dilution method; type: functional; settings: time 16-18 hrs
[9] = tested on: Staphylococcus aureus; assay: Antibacterial activity against methicillin-resistant Staphylococcus aureus 330041 assessed as inhibition of bacterial growth incubated for 16 to 18 hrs by CLSI based two-fold serial dilution method; type: functional; settings: time 16-18 hrs

Structure (SMILES) | MIC [1] | MIC [2] | IC50 at 24 h [3] | MIC [4] | MIC [5] | MIC [6] | MIC [7] | MIC [8] | MIC [9]
O=C(O)CCC[P+](c1ccccc1)(c1ccccc1)c1ccccc1.[Br-] | > 64 µg/mL | > 64 µg/mL | > 64 µg/mL | > 64 µg/mL | > 64 µg/mL | > 64 µg/mL | > 64 µg/mL | > 64 µg/mL | > 64 µg/mL
Br.O=C(CC[P+](c1ccccc1)(c1ccccc1)c1ccccc1)OC[C@H](NC(=O)C(Cl)Cl)[C@H](O)c1ccc([N+](=O)[O-])cc1 | > 64 µg/mL | > 64 µg/mL | > 64 µg/mL | > 64 µg/mL | > 64 µg/mL | > 64 µg/mL | > 64 µg/mL | > 64 µg/mL | > 64 µg/mL
O=C(O)CCCCCCCCCCC[P+](c1ccccc1)(c1ccccc1)c1ccccc1.[Br-] | > 64 µg/mL | > 64 µg/mL | > 64 µg/mL | > 64 µg/mL | > 64 µg/mL | > 64 µg/mL | > 64 µg/mL | > 64 µg/mL | > 64 µg/mL
Br.O=C(CCCC[P+](c1ccccc1)(c1ccccc1)c1ccccc1)OC[C@H](NC(=O)C(Cl)Cl)[C@H](O)c1ccc([N+](=O)[O-])cc1 | 8 µg/mL | 8 µg/mL | > 64 µg/mL | > 64 µg/mL | 8 µg/mL | > 64 µg/mL | > 64 µg/mL | > 64 µg/mL | 16 µg/mL
Br.O=C(CCCCCCC[P+](c1ccccc1)(c1ccccc1)c1ccccc1)OC[C@H](NC(=O)C(Cl)Cl)[C@H](O)c1ccc([N+](=O)[O-])cc1 | 2 µg/mL | 2 µg/mL | > 64 µg/mL | > 64 µg/mL | 2 µg/mL | > 64 µg/mL | > 64 µg/mL | > 64 µg/mL | 2 µg/mL
Br.O=C(CCCCCCCCCCC[P+](c1ccccc1)(c1ccccc1)c1ccccc1)OC[C@H](NC(=O)C(Cl)Cl)[C@H](O)c1ccc([N+](=O)[O-])cc1 | 2 µg/mL | 2 µg/mL | 16.5 µg/mL | > 64 µg/mL | 2 µg/mL | > 64 µg/mL | > 64 µg/mL | > 64 µg/mL | 2 µg/mL
O=C(O)CCCCCCC[P+](c1ccccc1)(c1ccccc1)c1ccccc1.[Br-] | > 64 µg/mL | > 64 µg/mL | > 64 µg/mL | > 64 µg/mL | > 64 µg/mL | > 64 µg/mL | > 64 µg/mL | > 64 µg/mL | > 64 µg/mL
O=C(O)CCCCCCCCC[P+](c1ccc(C(F)(F)F)cc1)(c1ccc(C(F)(F)F)cc1)c1ccc(C(F)(F)F)cc1.[Br-] | > 64 µg/mL | > 64 µg/mL | > 64 µg/mL | > 64 µg/mL | > 64 µg/mL | > 64 µg/mL | > 64 µg/mL | > 64 µg/mL | > 64 µg/mL
Br.O=C(CCCCCCCCC[P+](c1ccc(Cl)cc1)(c1ccc(Cl)cc1)c1ccc(Cl)cc1)OC[C@H](NC(=O)C(Cl)Cl)[C@H](O)c1ccc([N+](=O)[O-])cc1 | 0.5 µg/mL | 0.5 µg/mL | 16.4 µg/mL | > 64 µg/mL | 0.5 µg/mL | > 64 µg/mL | > 64 µg/mL | > 64 µg/mL | 0.5 µg/mL
Br.O=C(CCCCCCCCC[P+](c1cccc(F)c1)(c1cccc(F)c1)c1cccc(F)c1)OC[C@H](NC(=O)C(Cl)Cl)[C@H](O)c1ccc([N+](=O)[O-])cc1 | 1 µg/mL | 1 µg/mL | 28.7 µg/mL | > 64 µg/mL | 1 µg/mL | > 64 µg/mL | > 64 µg/mL | > 64 µg/mL | 1 µg/mL
Br.O=C(CCC[P+](c1ccccc1)(c1ccccc1)c1ccccc1)OC[C@H](NC(=O)C(Cl)Cl)[C@H](O)c1ccc([N+](=O)[O-])cc1 | 16 µg/mL | 32 µg/mL | > 64 µg/mL | > 64 µg/mL | 32 µg/mL | > 64 µg/mL | > 64 µg/mL | > 64 µg/mL | 32 µg/mL
O=C(O)CCCCCCCCC[P+](c1ccccc1)(c1ccccc1)c1ccccc1.[Br-] | > 64 µg/mL | > 64 µg/mL | > 64 µg/mL | > 64 µg/mL | > 64 µg/mL | > 64 µg/mL | > 64 µg/mL | > 64 µg/mL | > 64 µg/mL
Br.COc1cccc([P+](CCCCCCCCCC(=O)OC[C@H](NC(=O)C(Cl)Cl)[C@H](O)c2ccc([N+](=O)[O-])cc2)(c2cccc(OC)c2)c2cccc(OC)c2)c1 | 1 µg/mL | 2 µg/mL | 21.7 µg/mL | 16 µg/mL | 1 µg/mL | > 64 µg/mL | 4 µg/mL | > 64 µg/mL | 1 µg/mL
O=C(O)CCCCCCCCC[P+](c1cccc(F)c1)(c1cccc(F)c1)c1cccc(F)c1.[Br-] | > 64 µg/mL | > 64 µg/mL | > 64 µg/mL | > 64 µg/mL | > 64 µg/mL | > 64 µg/mL | > 64 µg/mL | > 64 µg/mL | > 64 µg/mL
COc1cccc([P+](CCCCCCCCCC(=O)O)(c2cccc(OC)c2)c2cccc(OC)c2)c1.[Br-] | 32 µg/mL | 32 µg/mL | 15.4 µg/mL | > 64 µg/mL | 16 µg/mL | 64 µg/mL | 64 µg/mL | > 64 µg/mL | 32 µg/mL
O=C(O)CCCC[P+](c1ccccc1)(c1ccccc1)c1ccccc1.[Br-] | > 64 µg/mL | > 64 µg/mL | > 64 µg/mL | > 64 µg/mL | > 64 µg/mL | > 64 µg/mL | > 64 µg/mL | > 64 µg/mL | > 64 µg/mL
O=C(O)CCCCCCCCC[P+](c1ccc(F)cc1)(c1ccc(F)cc1)c1ccc(F)cc1.[Br-] | > 64 µg/mL | > 64 µg/mL | > 64 µg/mL | > 64 µg/mL | > 64 µg/mL | > 64 µg/mL | > 64 µg/mL | > 64 µg/mL | > 64 µg/mL
Br.O=C(CCCCCCCCC[P+](c1ccccc1)(c1ccccc1)c1ccccc1)O[C@H](c1ccc([N+](=O)[O-])cc1)[C@H](CO)NC(=O)C(Cl)Cl | 1 µg/mL | 1 µg/mL | < 32 µg/mL | > 64 µg/mL | 2 µg/mL | > 64 µg/mL | > 64 µg/mL | > 64 µg/mL | 1 µg/mL
Cc1ccc([P+](CCCCCCCCCC(=O)O)(c2ccc(C)cc2)c2ccc(C)cc2)cc1.[Br-] | > 64 µg/mL | > 64 µg/mL | 23.1 µg/mL | > 64 µg/mL | > 64 µg/mL | > 64 µg/mL | > 64 µg/mL | > 64 µg/mL | > 64 µg/mL
CN(C)c1ccc([P+](CCCCCCCCCC(=O)O)(c2ccc(N(C)C)cc2)c2ccc(N(C)C)cc2)cc1.[Br-] | 4 µg/mL | 8 µg/mL | 2.1 µg/mL | 32 µg/mL | 16 µg/mL | 32 µg/mL | 16 µg/mL | 32 µg/mL | 8 µg/mL
O=C(O)CCCCC[P+](c1ccccc1)(c1ccccc1)c1ccccc1.[Br-] | > 64 µg/mL | > 64 µg/mL | > 64 µg/mL | > 64 µg/mL | > 64 µg/mL | > 64 µg/mL | > 64 µg/mL | > 64 µg/mL | > 64 µg/mL
Br.O=C(COCCOCCOCC[P+](c1ccc(F)cc1)(c1ccc(F)cc1)c1ccc(F)cc1)OC[C@@H](NC(=O)C(Cl)Cl)[C@@H](O)c1ccc([N+](=O)[O-])cc1 | 8 µg/mL | 8 µg/mL | > 64 µg/mL | > 64 µg/mL | 8 µg/mL | > 64 µg/mL | > 64 µg/mL | > 64 µg/mL | 8 µg/mL
O=C(O)CCCCCCCCC[P+](c1ccc(Cl)cc1)(c1ccc(Cl)cc1)c1ccc(Cl)cc1.[Br-] | > 64 µg/mL | > 64 µg/mL | 30.8 µg/mL | > 64 µg/mL | > 64 µg/mL | > 64 µg/mL | > 64 µg/mL | > 64 µg/mL | > 64 µg/mL
Br.Cc1ccc([P+](CCCCCCCCCC(=O)OC[C@H](NC(=O)C(Cl)Cl)[C@H](O)c2ccc([N+](=O)[O-])cc2)(c2ccc(C)cc2)c2ccc(C)cc2)cc1 | 0.5 µg/mL | 0.5 µg/mL | 14.7 µg/mL | > 64 µg/mL | 0.5 µg/mL | > 64 µg/mL | > 64 µg/mL | > 64 µg/mL | 0.5 µg/mL
Br.COc1ccc([P+](CCCCCCCCCC(=O)OC[C@H](NC(=O)C(Cl)Cl)[C@H](O)c2ccc([N+](=O)[O-])cc2)(c2ccc(OC)cc2)c2ccc(OC)cc2)cc1 | 2 µg/mL | 2 µg/mL | 23.5 µg/mL | > 64 µg/mL | 2 µg/mL | > 64 µg/mL | > 64 µg/mL | > 64 µg/mL | 1 µg/mL
O=C(O)CC[P+](c1ccccc1)(c1ccccc1)c1ccccc1.[Br-] | > 64 µg/mL | > 64 µg/mL | > 64 µg/mL | > 64 µg/mL | > 64 µg/mL | > 64 µg/mL | > 64 µg/mL | > 64 µg/mL | > 64 µg/mL
COc1ccc([P+](CCCCCCCCCC(=O)O)(c2ccc(OC)cc2)c2ccc(OC)cc2)cc1.[Br-] | 32 µg/mL | 16 µg/mL | 13.5 µg/mL | > 64 µg/mL | 32 µg/mL | 64 µg/mL | > 64 µg/mL | 64 µg/mL | 32 µg/mL
O=C(O)c1cn(C2CC2)c2cc(N3CCNCC3)c(F)cc2c1=O [CIPROFLOXACIN] |  |  | > 64 µg/mL |  |  |  |  |  | 
